Assays:
[1] = target: Muscarinic acetylcholine receptor M3 (Rattus norvegicus, UniProt P08483); test: Inhibition of binding of [3H]N-methylscopolamine to muscarinic receptor (M3) in rat submaxillary gland homogenates
[2] = target: T1, Muscarinic acetylcholine receptor M1 (Rattus norvegicus, UniProt P08482); test: Inhibition of binding of [3H]pirenzepine to muscarinic receptor (M1) in rat cortex homogenates
T1 sequence (P08482 whole entry): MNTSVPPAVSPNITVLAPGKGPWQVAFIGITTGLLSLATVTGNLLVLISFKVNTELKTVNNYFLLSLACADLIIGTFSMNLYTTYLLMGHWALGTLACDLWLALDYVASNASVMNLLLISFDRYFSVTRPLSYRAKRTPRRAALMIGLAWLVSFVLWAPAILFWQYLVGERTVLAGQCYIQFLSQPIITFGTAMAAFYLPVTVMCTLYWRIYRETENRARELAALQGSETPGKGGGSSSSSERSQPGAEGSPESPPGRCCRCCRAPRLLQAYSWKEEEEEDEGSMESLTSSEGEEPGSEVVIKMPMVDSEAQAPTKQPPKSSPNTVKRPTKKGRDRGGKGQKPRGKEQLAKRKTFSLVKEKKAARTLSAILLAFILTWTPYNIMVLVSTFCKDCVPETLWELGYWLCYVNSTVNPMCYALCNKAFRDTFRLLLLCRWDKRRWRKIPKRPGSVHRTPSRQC

[3] = target: T2, Muscarinic acetylcholine receptor M4 (Rattus norvegicus, UniProt P08485); test: Inhibition of binding of [3H]N-methylscopolamine to Muscarinic acetylcholine receptor M4 in NG 108-15 cell homogenates; type: cell-free
T2 sequence (P08485 whole entry): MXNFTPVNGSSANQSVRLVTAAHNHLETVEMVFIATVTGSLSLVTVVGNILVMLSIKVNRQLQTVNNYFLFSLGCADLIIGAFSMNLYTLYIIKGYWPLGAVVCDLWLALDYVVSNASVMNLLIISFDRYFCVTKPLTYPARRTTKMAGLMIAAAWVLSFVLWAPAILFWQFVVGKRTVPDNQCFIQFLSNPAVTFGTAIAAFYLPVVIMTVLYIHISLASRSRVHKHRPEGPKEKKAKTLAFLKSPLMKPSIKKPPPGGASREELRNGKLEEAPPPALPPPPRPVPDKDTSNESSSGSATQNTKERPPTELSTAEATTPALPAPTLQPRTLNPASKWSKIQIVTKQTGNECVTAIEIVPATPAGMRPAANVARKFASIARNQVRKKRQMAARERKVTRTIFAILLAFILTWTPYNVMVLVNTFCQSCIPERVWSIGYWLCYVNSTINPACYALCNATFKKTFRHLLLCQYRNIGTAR

[4] = target: T3, Muscarinic acetylcholine receptor M2 (Rattus norvegicus, UniProt P10980); test: Inhibition of binding of [3H]N-methylscopolamine to muscarinic receptor (M2) in rat heart homogenates; type: tissue-based
T3 sequence (P10980 whole entry): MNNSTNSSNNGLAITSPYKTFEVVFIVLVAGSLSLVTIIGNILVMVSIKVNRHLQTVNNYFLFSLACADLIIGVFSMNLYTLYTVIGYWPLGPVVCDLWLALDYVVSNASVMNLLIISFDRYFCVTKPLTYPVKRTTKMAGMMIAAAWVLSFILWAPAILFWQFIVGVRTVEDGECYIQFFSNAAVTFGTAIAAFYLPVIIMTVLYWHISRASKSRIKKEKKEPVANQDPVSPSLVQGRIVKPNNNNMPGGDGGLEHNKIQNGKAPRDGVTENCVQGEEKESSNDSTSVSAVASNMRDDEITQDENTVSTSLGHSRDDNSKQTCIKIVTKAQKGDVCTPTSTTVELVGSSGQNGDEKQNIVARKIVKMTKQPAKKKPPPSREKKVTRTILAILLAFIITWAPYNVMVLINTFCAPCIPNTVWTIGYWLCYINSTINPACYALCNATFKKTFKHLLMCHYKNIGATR

Chain of Muscarinic acetylcholine receptor M3 (P08483 whole entry): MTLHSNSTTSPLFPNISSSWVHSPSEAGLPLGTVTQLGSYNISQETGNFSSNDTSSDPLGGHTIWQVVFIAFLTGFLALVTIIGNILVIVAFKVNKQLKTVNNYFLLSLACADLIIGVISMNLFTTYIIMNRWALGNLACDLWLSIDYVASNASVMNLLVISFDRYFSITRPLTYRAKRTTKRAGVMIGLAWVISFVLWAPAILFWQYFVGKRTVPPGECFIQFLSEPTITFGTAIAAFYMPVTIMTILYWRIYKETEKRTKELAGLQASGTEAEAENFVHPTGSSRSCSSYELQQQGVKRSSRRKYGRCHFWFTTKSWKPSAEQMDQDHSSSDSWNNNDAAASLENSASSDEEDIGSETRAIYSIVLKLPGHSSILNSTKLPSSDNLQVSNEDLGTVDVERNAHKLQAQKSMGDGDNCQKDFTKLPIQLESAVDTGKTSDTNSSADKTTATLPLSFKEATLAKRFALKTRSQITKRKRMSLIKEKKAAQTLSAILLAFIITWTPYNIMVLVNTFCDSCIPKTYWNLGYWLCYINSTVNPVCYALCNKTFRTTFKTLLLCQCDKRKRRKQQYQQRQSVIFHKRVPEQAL

SMILES	Ki [1]	Ki [2]	Ki [3]	Ki [4]
CN(CCCCCCCCN(C)CCCCCCN1CCC2(CC1)OC(=O)C(c1ccccc1)(c1ccccc1)O2)CCCCCCN1CCC2(CC1)OC(=O)C(c1ccccc1)(c1ccccc1)O2 [SPIROTRAMINE]	977 nM	13.2 nM	537 nM	631 nM
CN(CCCCCCCCN(C)CCCCCCN1CCC(OC(=O)C(c2ccccc2)c2ccccc2)CC1)CCCCCCN1CCC(OC(=O)C(c2ccccc2)c2ccccc2)CC1	2140 nM	75.9 nM	39.8 nM	182 nM

From ChEMBL document CHEMBL1151491 (Bioorg Med Chem Lett, 1995)
